Results from the supplement of paper PMC5908809.

Experiments:
[1] = test system: normal NK cells expanded with K562-aAPC; assay: percent inhibition of viability; higher = more inhibition; conditions: 72 h, IL-2 2.5 ng/mL
Protocol: (§1)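 Drug sensitivity and resistance testing on K562-aAPC-expanded normal NK cells: 5 concentrations (10-fold steps over a 10,000-fold range), 72 h at 37 °C, viability by CellTiter-Glo normalised to DMSO and benzethonium chloride controls; DSS from the fitted curve.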

DERL-7 (IL-2 2.5 ng/mL) [2] = assay: as above; conditions: 72 h
IMC-1 (IL-2 20 ng/mL) [3] = assay: as above; conditions: 72 h
KAI3 (IL-2 2.5 ng/mL) [4] = assay: as above; conditions: 72 h
KHYG-1 (IL-2 2.5 ng/mL) [5] = assay: as above; conditions: 72 h
NK-92 (IL-2 2.5 ng/mL) [6] = assay: as above; conditions: 72 h
NK-YS (IL-2 2.5 ng/mL) [7] = assay: as above; conditions: 72 h
NKL (IL-2 2.5 ng/mL) [8] = assay: as above; conditions: 72 h
SNK-6 (IL-2 2.5 ng/mL) [9] = assay: as above; conditions: 72 h
YT (IL-2 2.5 ng/mL) [10] = assay: as above; conditions: 72 h
[11] = test system: normal primary NK cells, pool 1 (3 donors) (IL-2 2.5 ng/mL); assay: as above; conditions: 72 h
[12] = test system: normal primary NK cells, pool 1 (3 donors), resting (IL-2 0 ng/mL); assay: as above; conditions: 72 h
[13] = test system: normal primary NK cells, pool 2 (3 donors) (IL-2 2.5 ng/mL); assay: as above; conditions: 72 h
[14] = test system: normal primary NK cells, pool 3 (3 donors) (IL-2 2.5 ng/mL); assay: as above; conditions: 72 h
[15] = test system: normal NK cells expanded with K562-aAPC; assay: drug sensitivity score (DSS) (DSS units); higher = more sensitive; extreme values may be limits of the assay; conditions: 72 h; IL-2 2.5 ng/mL
Protocol: as §1

DERL-7 (IL-2 2.5 ng/mL) [16] = assay: as above; conditions: 72 h
IMC-1 (IL-2 20 ng/mL) [17] = assay: as above; conditions: 72 h
KAI3 (IL-2 2.5 ng/mL) [18] = assay: as above; conditions: 72 h
KHYG-1 (IL-2 2.5 ng/mL) [19] = assay: as above; conditions: 72 h
NK-92 (IL-2 2.5 ng/mL) [20] = assay: as above; conditions: 72 h
NK-YS (IL-2 2.5 ng/mL) [21] = assay: as above; conditions: 72 h
NKL (IL-2 2.5 ng/mL) [22] = assay: as above; conditions: 72 h
SNK-6 (IL-2 2.5 ng/mL) [23] = assay: as above; conditions: 72 h
YT (IL-2 2.5 ng/mL) [24] = assay: as above; conditions: 72 h
[25] = test system: normal primary NK cells, pool 1 (3 donors) (IL-2 2.5 ng/mL); assay: as above; conditions: 72 h
[26] = test system: normal primary NK cells, pool 1 (3 donors), resting (IL-2 0 ng/mL); assay: as above; conditions: 72 h
[27] = test system: normal primary NK cells, pool 2 (3 donors) (IL-2 2.5 ng/mL); assay: as above; conditions: 72 h
[28] = test system: normal primary NK cells, pool 3 (3 donors) (IL-2 2.5 ng/mL); assay: as above; conditions: 72 h

COc1cc2c(NC3CCN(C(C)C)CC3)nc(N3CCC(F)(F)CC3)nc2cc1OCCCN1CCCC1 [UNC0642] (max concentration tested 10000 nM)
percent inhibition of viability [%]
Conditions	1 nM	10 nM	100 nM	1000 nM	10000 nM
DERL-7 (IL-2 2.5 ng/mL) [2]	-0.28	1.37	-1.94	0.05	99.9
IMC-1 (IL-2 20 ng/mL) [3]	-11.9	-4.05	-6.38	8.61	100
KAI3 (IL-2 2.5 ng/mL) [4]	-0.96	1.92	10.1	48.5	103
KHYG-1 (IL-2 2.5 ng/mL) [5]	-4.39	-1.22	-6.31	6.97	28.1
NK-92 (IL-2 2.5 ng/mL) [6]	-11	-2.07	-11.4	3.52	49
NK-YS (IL-2 2.5 ng/mL) [7]	-3.38	-1.95	0.35	8.5	101
NKL (IL-2 2.5 ng/mL) [8]	-6.06	-13.9	-8.65	22.1	105
SNK-6 (IL-2 2.5 ng/mL) [9]	-9.05	11.3	2.25	25.3	99.3
YT (IL-2 2.5 ng/mL) [10]	-6.39	-3.26	-2.23	4.47	74.2
[1]	-4.11	-7.96	-1.75	10.2	100
[11]	-1.76	13.1	19.9	18.1	101
[12]	9.19	22.7	14	28.9	98.6
[13]	-4.62	6.45	-2.04	-4.01	99.7
[14]	-1.76	4.79	4.65	-5.45	100

Conditions	drug sensitivity score
DERL-7 (IL-2 2.5 ng/mL) [16]	5.6
IMC-1 (IL-2 20 ng/mL) [17]	6.92
KAI3 (IL-2 2.5 ng/mL) [18]	11.3
KHYG-1 (IL-2 2.5 ng/mL) [19]	2.2
NK-92 (IL-2 2.5 ng/mL) [20]	3.1
NK-YS (IL-2 2.5 ng/mL) [21]	6.94
NKL (IL-2 2.5 ng/mL) [22]	9.05
SNK-6 (IL-2 2.5 ng/mL) [23]	9.35
YT (IL-2 2.5 ng/mL) [24]	4.75
[15]	7.22
[25]	8.52
[26]	9.04
[27]	5.23
[28]	5.16

O=C(c1ccc(C(=O)N2CCC(N3CCCC3)CC2)c(Nc2ccccc2)c1)N1CCC(N2CCCC2)CC1 [UNC1215] (max concentration tested 30000 nM)
percent inhibition of viability [%]
Conditions	3 nM	30 nM	300 nM	3000 nM	30000 nM
DERL-7 (IL-2 2.5 ng/mL) [2]	-1.53	0.01	3.61	7.89	3.14
IMC-1 (IL-2 20 ng/mL) [3]	-3.72	-5.44	3.3	4.34	14.3
KAI3 (IL-2 2.5 ng/mL) [4]	1.7	4.58	5.63	3.2	16.4
KHYG-1 (IL-2 2.5 ng/mL) [5]	-1.52	-1.25	-0.64	3.44	11.4
NK-92 (IL-2 2.5 ng/mL) [6]	-15.1	-6.53	5.43	7.05	13.6
NK-YS (IL-2 2.5 ng/mL) [7]	-2.93	-6.82	1.29	4.26	12.9
NKL (IL-2 2.5 ng/mL) [8]	-7.8	-11.1	-0.61	-5.87	10.9
SNK-6 (IL-2 2.5 ng/mL) [9]	-4.87	-19.4	0.88	-4.07	-10.5
YT (IL-2 2.5 ng/mL) [10]	-2.24	-2.54	-0.78	1.55	4.57
[1]	3.82	0.21	4.98	5.27	6.03
[11]	-4.87	7.23	-8	1.14	-2.52
[12]	-4.97	4.4	-12.3	-0.15	-14.2
[13]	-8.79	-4.27	-3.06	7.44	11.8
[14]	-6.54	-6.05	-0.93	8.8	12.9

Conditions	drug sensitivity score
DERL-7 (IL-2 2.5 ng/mL) [16]	0
IMC-1 (IL-2 20 ng/mL) [17]	0.31
KAI3 (IL-2 2.5 ng/mL) [18]	0.59
KHYG-1 (IL-2 2.5 ng/mL) [19]	0.12
NK-92 (IL-2 2.5 ng/mL) [20]	0.29
NK-YS (IL-2 2.5 ng/mL) [21]	0.25
NKL (IL-2 2.5 ng/mL) [22]	0
SNK-6 (IL-2 2.5 ng/mL) [23]	0
YT (IL-2 2.5 ng/mL) [24]	0
[15]	0
[25]	0
[26]	0
[27]	0.28
[28]	0.52

CS(=O)(=O)c1ccc(-c2cnc(N)c(C(=O)Nc3ccccc3)n2)cc1 [VE-821] (max concentration tested 10000 nM)
percent inhibition of viability [%]
Conditions	1 nM	10 nM	100 nM	1000 nM	10000 nM
DERL-7 (IL-2 2.5 ng/mL) [2]	4.33	7.29	1.29	12.9	50.9
IMC-1 (IL-2 20 ng/mL) [3]	-4.03	0.79	-1.04	4.32	67.9
KAI3 (IL-2 2.5 ng/mL) [4]	-6.99	-6.14	7.79	43.5	52
KHYG-1 (IL-2 2.5 ng/mL) [5]	-3.09	-0.84	3.42	23.8	95.3
NK-92 (IL-2 2.5 ng/mL) [6]	-13.2	-3.86	2.78	36	48
NK-YS (IL-2 2.5 ng/mL) [7]	-5.61	-3.96	4.64	25.1	40.2
NKL (IL-2 2.5 ng/mL) [8]	-16.3	-14.8	-15.7	-0.56	24.9
SNK-6 (IL-2 2.5 ng/mL) [9]	3.87	-9.33	-1.01	33.3	52.1
YT (IL-2 2.5 ng/mL) [10]	-4.34	-6.49	-4.51	4.75	9.28
[1]	-5.95	-7.38	-2.06	18.1	32.8
[11]	-1.78	22.5	3.18	5.45	6.99
[12]	9.92	20.7	22.8	23	21.5
[13]	-7.66	8.41	7.62	7.68	15.6
[14]	-3.66	1.35	5.12	0.23	15.6

Conditions	drug sensitivity score
DERL-7 (IL-2 2.5 ng/mL) [16]	4.71
IMC-1 (IL-2 20 ng/mL) [17]	4.37
KAI3 (IL-2 2.5 ng/mL) [18]	8.88
KHYG-1 (IL-2 2.5 ng/mL) [19]	8.93
NK-92 (IL-2 2.5 ng/mL) [20]	7.01
NK-YS (IL-2 2.5 ng/mL) [21]	4.96
NKL (IL-2 2.5 ng/mL) [22]	0.89
SNK-6 (IL-2 2.5 ng/mL) [23]	6.77
YT (IL-2 2.5 ng/mL) [24]	0
[15]	3.68
[25]	0
[26]	0
[27]	0.62
[28]	0.29
